Patent US12240839B2, “Cyclobutyl dihydroquinoline sulfonamide compounds” (AMGEN INC., priority 2020, dated 2025)

System: CYP3A4
Test: Human CYP3A4 induction assay (mRNA, cryopreserved human hepatocytes)
Details: 10 uM test compound, 72 hours, percent of control (rifampin positive control)
Experimental: Human CYP3A4 Induction Assay
Cryopreserved human hepatocytes were seeded in 96-well collagen coated plates at 70,000 cells per well in hepatocyte plating media (HPM, final concentrations: 1× Dulbecco's Modified Eagle's Medium, 0.1 μM dexamethasone, 10% fetal bovine serum, 1×ITS, 1×PSG) followed by incubation at 37° C. under 5% CO2 and 90% relative humidity for 2 days to allow hepatocytes to form a confluent layer. On Day 3, hepatocytes were treated with either test compound or rifampin (20 μM, positive control for CYP3A induction) prepared in hepatocyte incubation media ((HIM, final concentrations: 1× William's Medium E, 0.1 μM dexamethasone, 1×ITS, 1×PSG). Treatment was performed for 72 hours with either 2 concentrations (2 μM or 10 μM) or a range of concentrations (0.001 μM to 100 μM) of the test compound to obtain full dose-response curve. Fresh media containing the relevant concentrations of the test compound was replaced every day until the samples were processed. After 72 hours of incubation, samples were processed for mRNA analysis using bDNA technology using manufacturer's instructions (Affymetrix, Fremont, CA). Cell viability was tested at the end of the experiment using MTT assay kit (Roche Diagnostics, Basel, Switzerland). Data was analyzed and presented as percent of control (POC) and Emax and EC50 obtained when appropriate according to guidance from Center for Drug Evaluation and Research (CDER), 2006, Guidance for Industry, Drug Interaction Studies—Study Design, Data Analysis, and Implications for Dosing and Labeling.

| Structure (SMILES) | Hu CYP3A4 mRNA Induction (10 uM POC) |
| --- | --- |
| COc1cc([C@H]2C[C@H](C(F)(F)F)C2)c(C)cc1-n1c(=O)ccc2cc(S(=O)(=O)Nc3ccon3)ccc21 (atropisomer, axis not shown; (P)) [Example 20, trans-(P)—N-(isoxazol-3-yl)-1-(2-methoxy-5-methyl-4-(3-(trifluoromethyl)cyclobutyl)phenyl)-2-oxo-1,2-dihydroquinoline-6-sulfonamide] | 42.22% |
| COc1cc([C@H]2C[C@@H](C(F)(F)F)C2)c(Cl)cc1-n1c(=O)ccc2cc(S(=O)(=O)Nc3ncccn3)ccc21 (atropisomer, axis not shown; (P)) [Example 16, cis-(P)-1-(5-chloro-2-methoxy-4-(3-(trifluoromethyl)cyclobutyl)phenyl)-2-oxo-N-(pyrimidin-2-yl)-1,2-dihydroquinoline-6-sulfonamide] | 130.1% |
| COc1cc(C2CCC2)c(C)cc1-n1c(=O)ccc2cc(S(=O)(=O)Nc3ncccn3)ccc21 (atropisomer, axis not shown; (P)) [Example 27, (P)-1-(4-Cyclobutyl-2-Methoxy-5-Methylphenyl)-2-Oxo-N-(Pyrimidin-2-Yl)-1,2-Dihydroquinoline-6-Sulfonamide] | 48.14% |
| COc1cc(C2CCC2)c(Cl)cc1-n1c(=O)ccc2cc(S(=O)(=O)Nc3ncccn3)ccc21 (atropisomer, axis not shown; (P)) [Example 18, (P)-1-(5-chloro-4-cyclobutyl-2-methoxyphenyl)-2-oxo-N-(pyrimidin-2-yl)-1,2-dihydroquinoline-6-sulfonamide] | 20.78% |
| COc1cc(C2CCC2)c(F)cc1-n1c(=O)ccc2cc(S(=O)(=O)Nc3ncccn3)ccc21 (atropisomer, axis not shown; (P)) [Example 28, (P)-1-(4-cyclobutyl-5-fluoro-2-methoxyphenyl)-2-oxo-N-(pyrimidin-2-yl)-1,2-dihydroquinoline-6-sulfonamide] | 60.29% |
| COc1cc([C@H]2C[C@@](F)(C(F)(F)F)C2)c(Cl)cc1-n1c(=O)ccc2cc(S(=O)(=O)Nc3ccon3)ccc21 (atropisomer, axis not shown; (P)) [Example 11, trans-(P)-1-(5-chloro-4-(3-fluoro-3-(trifluoromethyl)cyclobutyl)-2-methoxyphenyl)-N-(isoxazol-3-yl)-2-oxo-1,2-dihydroquinoline-6-sulfonamide] | 7.29% |
| COc1cc([C@H]2C[C@@H](C(F)(F)F)C2)c(F)cc1-n1c(=O)ccc2cc(S(=O)(=O)Nc3ccon3)ccc21 (single isomer, unassigned) [Example 6, cis-(P)-1-(5-fluoro-2-methoxy-4-(3-(trifluoromethyl)cyclobutyl)phenyl)-N-(isoxazol-3-yl)-2-oxo-1,2-dihydroquinoline-6-sulfonamide] | 83.89% |
| COc1cc(C2CCC2)c(Cl)cc1-n1c(=O)ccc2cc(S(=O)(=O)Nc3ccon3)ccc21 (atropisomer, axis not shown; (P)) [Example 21, (P)-1-(5-chloro-4-cyclobutyl-2-methoxyphenyl)-N-(isoxazol-3-yl)-2-oxo-1,2-dihydroquinoline-6-sulfonamide] | 17.07% |
| COc1cc([C@H]2C[C@H](C(F)(F)F)C2)c(Cl)cc1-n1c(=O)ccc2cc(S(=O)(=O)Nc3cccnn3)ccc21 (atropisomer, axis not shown; (P)) [Example 19, trans-(P)-1-(5-chloro-2-methoxy-4-(3-(trifluoromethyl)cyclobutyl)phenyl)-2-oxo-N-(pyridazin-3-yl)-1,2-dihydroquinoline-6-sulfonamide] | 60.73% |
| COc1cc(C2CCC2)ccc1-n1c(=O)ccc2cc(S(=O)(=O)Nc3ncccn3)ccc21 (atropisomer, axis not shown; (P)) [Example 26, (P)-1-(4-cyclobutyl-2-methoxyphenyl)-2-oxo-N-(pyrimidin-2-yl)-1,2-dihydroquinoline-6-sulfonamide] | 14.58% |
| COc1cc(C2CC2)c(F)cc1-n1c(=O)ccc2cc(S(=O)(=O)Nc3ccon3)ccc21 [Compound X, 1-(4-cyclopropyl-5-fluoro-2-methoxyphenyl)-N-(isoxazol-3-yl)-2-oxo-1,2-dihydroquinoline-6-sulfonamide, reference compound] | 84.31% |
| COc1cc([C@H]2C[C@H](C(F)(F)F)C2)c(Cl)cc1-n1c(=O)ccc2cc(S(=O)(=O)Nc3ccon3)ccc21 (single isomer, unassigned) [Example 12] | 68.98% |
| COc1cc([C@H]2C[C@](F)(C(F)(F)F)C2)c(Cl)cc1-n1c(=O)ccc2cc(S(=O)(=O)Nc3ccon3)ccc21 (atropisomer, axis not shown; (P)) [Example 10, cis-(P)-1-(5-chloro-4-(3-fluoro-3-(trifluoromethyl)cyclobutyl)-2-methoxyphenyl)-N-(isoxazol-3-yl)-2-oxo-1,2-dihydroquinoline-6-sulfonamide] | 5.66% |
| COc1cc(C2CCC2)c(F)cc1-n1c(=O)ccc2cc(S(=O)(=O)Nc3cccnn3)ccc21 (atropisomer, axis not shown; (P)) [Example 23, (P)-1-(4-cyclobutyl-5-fluoro-2-methoxyphenyl)-2-oxo-N-(pyridazin-3-yl)-1,2-dihydroquinoline-6-sulfonamide] | 14.37% |
| COc1cc([C@H]2C[C@H](C(F)(F)F)C2)c(Cl)cc1-n1c(=O)ccc2cc(S(=O)(=O)Nc3ncccn3)ccc21 (atropisomer, axis not shown; (P)) [Example 17, trans-(P)-1-(5-chloro-2-methoxy-4-(3-(trifluoromethyl)cyclobutyl)phenyl)-2-oxo-N-(pyrimidin-2-yl)-1,2-dihydroquinoline-6-sulfonamide] | 61.91% |
| COc1cc([C@H]2C[C@H](C(F)(F)F)C2)c(F)cc1-n1c(=O)ccc2cc(S(=O)(=O)Nc3ncccn3)ccc21 (atropisomer, axis not shown; (P)) [Example 15, trans-(P)-1-(5-fluoro-2-methoxy-4-(3-(trifluoromethyl)cyclobutyl)phenyl)-2-oxo-N-(pyrimidin-2-yl)-1,2-dihydroquinoline-6-sulfonamide] | 36% |

Second part, the compound after the results:

| Hu CYP3A4 mRNA Induction (10 uM POC) | Structure (SMILES) |
| --- | --- |
| 36.685% | COc1cc([C@H]2C[C@H](OC(F)(F)F)C2)c(F)cc1-n1c(=O)ccc2cc(S(=O)(=O)Nc3ccon3)ccc21 (single isomer, unassigned) [Example 45, trans-(P)-1-(5-fluoro-2-methoxy-4-(3-(trifluoromethoxy)cyclobutyl)phenyl)-N-(isoxazol-3-yl)-2-oxo-1,2-dihydroquinoline-6-sulfonamide] |
| 21.68% | COc1cc([C@H]2C[C@H](C(F)(F)F)C2)c(F)cc1-n1c(=O)ccc2cc(S(=O)(=O)Nc3cccnn3)ccc21 (atropisomer, axis not shown; (P)) [Example 39, trans-(P)-1-(5-fluoro-2-methoxy-4-(3-(trifluoromethyl)cyclobutyl)phenyl)-2-oxo-N-(pyridazin-3-yl)-1,2-dihydroquinoline-6-sulfonamide] |
| 110.2% | COc1cc(C2CC(F)(F)C2)c(Cl)cc1-n1c(=O)ccc2cc(S(=O)(=O)Nc3ccon3)ccc21 (atropisomer, axis not shown; (P)) [Example 48, (P)-1-(5-chloro-4-(3,3-difluorocyclobutyl)-2-methoxyphenyl)-N-(isoxazol-3-yl)-2-oxo-1,2-dihydroquinoline-6-sulfonamide] |
| 19.64% | COc1cc(C23CC(C(F)(F)F)(C2)C3)c(F)cc1-n1c(=O)ccc2cc(S(=O)(=O)Nc3ncccn3)ccc21 (atropisomer, axis not shown; (P)) [Example 47, (P)-1-(5-fluoro-2-methoxy-4-(3-(trifluoromethyl)bicyclo[1.1.1]pentan-1-yl)phenyl)-2-oxo-N-(pyrimidin-2-yl)-1,2-dihydroquinoline-6-sulfonamide] |
| 74.43% | COc1cc([C@H]2C[C@H](C(F)(F)F)C2)c(F)cc1-n1c(=O)ccc2cc(S(=O)(=O)Nc3ccon3)c(F)cc21 (atropisomer, axis not shown; (P)) [Example 40, (P)-7-fluoro-1-(5-fluoro-2-methoxy-4-((1R,3R)-3-(trifluoromethyl)cyclobutyl)phenyl)-N-(isoxazol-3-yl)-2-oxo-1,2-dihydroquinoline-6-sulfonamide] |
| 19.25% | COc1cc(C23CC(C(F)(F)F)(C2)C3)c(F)cc1-n1c(=O)ccc2cc(S(=O)(=O)Nc3ccon3)ccc21 (atropisomer, axis not shown; (P)) [Example 42, (P)-1-(5-fluoro-2-methoxy-4-(3-(trifluoromethyl)bicyclo[1.1.1]pentan-1-yl)phenyl)-N-(isoxazol-3-yl)-2-oxo-1,2-dihydroquinoline-6-sulfonamide] |
| 34.63% | COc1cc(C2CCC2)ccc1-n1c(=O)ccc2cc(S(=O)(=O)Nc3ncco3)ccc21 (atropisomer, axis not shown; (P)) [Example 29, (P)-1-(4-cyclobutyl-2-methoxyphenyl)-N-(oxazol-2-yl)-2-oxo-1,2-dihydroquinoline-6-sulfonamide] |
| 52.8% | COc1cc(C2CC(F)(F)C2)c(F)cc1-n1c(=O)ccc2cc(S(=O)(=O)Nc3ccon3)c(F)cc21 (atropisomer, axis not shown; (P)) [Example 41, (P)-1-(4-(3,3-difluorocyclobutyl)-5-fluoro-2-methoxyphenyl)-7-fluoro-N-(isoxazol-3-yl)-2-oxo-1,2-dihydroquinoline-6-sulfonamide] |
| 68.28% | COc1cc([C@H]2C[C@H](C(F)(F)F)C2)c(F)cc1-n1c(=O)ccc2cc(S(=O)(=O)Nc3ncco3)ccc21 (atropisomer, axis not shown; (P)) [Example 43, (P)-1-(5-fluoro-2-methoxy-4-(3-(trifluoromethyl)cyclobutyl)phenyl)-N-(oxazol-2-yl)-2-oxo-1,2-dihydroquinoline-6-sulfonamide] |
